Measurements taken from publication PMC5637929, “RadH: A Versatile Halogenase for Integration into Synthetic Pathways” (Angewandte Chemie (International Ed. in English), 2017).

Tests used:
Experiment in all cases: Michaelis-Menten halogenation kinetics
[1] = target: T1, RadH (Floropilus chiversii, UniProt C5H881); format: biochemical; settings: kinetic assay conditions in supplement (Figures S4-S10)
T1 construct: recombinant, overproduced in E. coli, purified
Text: (§1) Michaelis-Menten halogenation kinetics on RadH

[2] = target: T2, RadH (Floropilus chiversii, UniProt C5H881, D465E/T501S); format: biochemical; settings: kinetic assay conditions in supplement (Figures S4-S10); table prints D456E/T501S, text prints D465E/T501S throughout
T2 construct: recombinant, overproduced in E. coli, purified
T2 sequence (C5H881 whole entry D465E/T501S): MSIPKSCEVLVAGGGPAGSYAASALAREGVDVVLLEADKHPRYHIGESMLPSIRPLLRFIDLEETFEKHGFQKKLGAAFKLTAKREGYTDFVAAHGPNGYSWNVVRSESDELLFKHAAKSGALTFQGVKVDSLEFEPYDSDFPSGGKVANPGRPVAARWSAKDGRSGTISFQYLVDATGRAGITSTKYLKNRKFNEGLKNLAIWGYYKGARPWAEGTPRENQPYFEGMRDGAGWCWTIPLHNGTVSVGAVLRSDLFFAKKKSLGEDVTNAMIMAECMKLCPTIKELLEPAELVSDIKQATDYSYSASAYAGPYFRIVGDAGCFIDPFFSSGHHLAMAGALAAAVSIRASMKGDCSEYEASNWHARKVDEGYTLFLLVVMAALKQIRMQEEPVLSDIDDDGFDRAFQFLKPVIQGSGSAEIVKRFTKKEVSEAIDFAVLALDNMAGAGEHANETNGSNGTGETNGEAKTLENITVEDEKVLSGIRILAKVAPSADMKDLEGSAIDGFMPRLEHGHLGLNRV
Text: as §1

[3] = test system: O=c1cc(-c2ccccc2)oc2cc(O)ccc12; format: biochemical, Floropilus chiversii; settings: kinetic assay conditions in supplement (Figures S4-S10)
Text: as §1

[4] = table prints D456E/T501S, text prints D465E/T501S throughout

T1 sequence (C5H881 whole entry): as the sequence (C5H881 whole entry D465E/T501S) above, with E465D, S501T counted along it

Compound	Km [1] [µM]	Km [2] [µM]	other results
Oc1ccc2cnccc2c1 [compound 6, 6-hydroxyisoquinoline]	277 ± 3	268 ± 10	
O=c1ccc2ccc(O)cc2o1 [compound 8, 7-hydroxycoumarin]	379 ± 5	465 ± 4	
O=c1cc(C(F)(F)F)c2ccc(O)cc2o1 [compound 10, 10]	309 ± 19		
Cc1cc(=O)oc2cc(O)ccc12 [compound 11, 11]	364 ± 18		
O=c1c(-c2ccc(O)cc2)coc2cc(O)ccc12 [compound 14, 14]	281 ± 2	315 ± 1	
RadH (Floropilus chiversii)			Km [3]: 347 ± 2 µM; kcat [3]: 0.000533 ± 5e-05 s⁻¹; kcat/Km [3]: 1.53 ± 0.15 M⁻¹ s⁻¹
RadH (Floropilus chiversii; D465E/T501S)			Km [3, 4]: 383 ± 4 µM; kcat [3, 4]: 0.000517 ± 3.33e-05 s⁻¹; kcat/Km [3, 4]: 1.35 ± 0.0833 M⁻¹ s⁻¹
